Experiments:
[1] = system: human washed platelets; experiment: Alpha-thrombin induced platelet aggregation assay; assay type: cell-based; conditions: 0.1 h, read-out: IC50 for the inhibition of platelet aggregation
Description: Example D is an alpha-thrombin-induced platelet aggregation assay. Alpha-thrombin activates both PAR1 and PAR4.
Human blood was collected in ACD (85 mM tri-sodium citrate, 78 mM citric acid, 110 mM D-glucose, pH 4.4) at a ratio of 1.4 ml per 10 ml blood. PRP was isolated by centrifugation at 170 g for 14 minutes and platelets were further pelleted by centrifugation at 1300 g for 6 minutes. Platelets were washed once with 10 ml ACD containing 1 mg/ml bovine serum albumin. Platelets were resuspended at ˜2.5×10^8/ml in Tyrode's Buffer (137 mM NaCl, 2 mM KCl, 1.0 mM MgCl2, 1 mM CaCl2, 5 mM glucose, 20 mM HEPES pH 7.4).
The ability of PAR4 antagonist to inhibit platelet aggregation induced by alpha-thrombin was tested using human washed platelets. […] Aggregation was initiated by addition of 1.5 nM alpha-thrombin (Haematologic Technologies, Essex Junction, Vt.) to 300 μl of washed platelets at stirring speed of 1000 rpm. […] IC50 was calculated using vehicle control as 0% inhibition.

[2] = system: carotid artery thrombosis; experiment: cynomolgus monkey electrolytic injury-induced carotid artery thrombosis model; assay type: in vivo; conditions: arterial thrombosis model in cynomolgus monkeys
[3] = system: carotid artery thrombosis; experiment: Cynomolgus monkey electrolytic injury-induced carotid artery thrombosis model; assay type: in vivo; conditions: oral, 1 to 2 hours before the experiment
Description: The efficacy of the PAR4 antagonists of the present invention in preventing thrombosis can also be measured in a variety of in vivo assays. Exemplary mammals that can provide models of thrombosis and hemostasis to test the effectiveness of the PAR4 antagonists of the present invention as antithrombotic agents include, but are not limited to, guinea pigs and primates. Relevant efficacy models include, but are not limited to, electrolytic injury-induced carotid artery thrombosis, FeCl3-induced carotid artery thrombosis and arteriovenous-shunt thrombosis. […]
On the day of the study, compounds or vehicles were administered orally at 1 to 2 hours before the experiment. […] Blood pressure and heart rate were monitored to maintain normal vital signs.
Carotid blood flow was measured with an appropriately sized TRANSONIC® flow probe and a TRANSONIC® perivascular flowmeter (TS420 Model, Transonic Systems Inc., Ithaca, N.Y.). It was continuously recorded over a 90-min period to monitor thrombosis-induced occlusion. Integrated carotid blood flow was measured by the area under the flow-time curve. It was expressed as percent of total control carotid blood flow, which would result if control blood flow had been maintained continuously for 90 min. […]

[4] = target: PAR1 (Homo sapiens (Human), UniProt P25116); conditions: ACS patients, phase III; cited from earlier work
Chain of PAR1 (P25116 22-425): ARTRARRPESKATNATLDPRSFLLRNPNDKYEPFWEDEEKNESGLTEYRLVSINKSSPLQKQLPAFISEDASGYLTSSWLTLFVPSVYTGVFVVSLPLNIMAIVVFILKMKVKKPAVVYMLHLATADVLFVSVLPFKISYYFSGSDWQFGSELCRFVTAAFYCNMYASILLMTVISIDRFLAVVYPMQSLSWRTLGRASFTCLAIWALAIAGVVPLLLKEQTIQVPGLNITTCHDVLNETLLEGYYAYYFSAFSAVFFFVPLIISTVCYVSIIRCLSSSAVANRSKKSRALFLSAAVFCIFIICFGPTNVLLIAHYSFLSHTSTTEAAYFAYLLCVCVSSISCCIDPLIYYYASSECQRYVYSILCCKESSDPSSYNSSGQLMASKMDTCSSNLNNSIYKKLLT

IC50 [1] [nM]	Compound	inhibition of thrombus formation / antithrombotic efficacy [2]	antithrombotic efficacy in electrically-induced arterial thrombus model (dose response, FIG. 1C) [3]	cardiovascular events [4]	risk of major bleeding [4]
5	COc1cc(OCc2csc(-c3ccccc3)n2)c2cc(-c3cn4nc(OC)sc4n3)oc2c1 [Example 3, 2-Methoxy-6-(6-methoxy-4-((2-phenylthiazol-4-yl)methoxy)benzofuran-2-yl)imidazo[2,1-b][1,3,4]thiadiazole]	antithrombotic efficacy	in vivo antithrombotic efficacy		
	CCOC(=O)N[C@@H]1CC[C@@H]2[C@@H](C1)C[C@H]1C(=O)O[C@H](C)[C@H]1[C@H]2/C=C/c1ccc(-c2cccc(F)c2)cn1 [vorapaxar]			did not significantly reduce	significantly increased
